Positions of bridges follow the written chain, without caps; N, C: chain ends. Non-standard residues stand in square brackets, D forms with d. Residues, ends and D or L forms follow the SMILES beside them. ξ: configuration not given here. Cit = NC(=O)NCCC[C@H](N)C(=O)O; Ile(3ξ) = CCC(C)[C@H](N)C(=O)O; Ahp(2) = CCCCC[C@H](N)C(=O)O; NMeNle = CCCC[C@H](NC)C(=O)O; Tle = CC(C)(C)[C@H](N)C(=O)O; NHexGly = CCCCCCNCC(=O)O; Nle = CCCC[C@H](N)C(=O)O
target: T1, mouse VISTA (mVISTA) (Mus musculus, UniProt Q9D659); assay: Cell-Based Binding High-Content Assay For mVISTA (HC CBA mVISTA); conditions: read-out: HC CBA mVISTA IC50
T1 construct: expressed in transfected cells; host or cells: Human embryonic kidney 293T cells
T1 sequence (Q9D659 33-308): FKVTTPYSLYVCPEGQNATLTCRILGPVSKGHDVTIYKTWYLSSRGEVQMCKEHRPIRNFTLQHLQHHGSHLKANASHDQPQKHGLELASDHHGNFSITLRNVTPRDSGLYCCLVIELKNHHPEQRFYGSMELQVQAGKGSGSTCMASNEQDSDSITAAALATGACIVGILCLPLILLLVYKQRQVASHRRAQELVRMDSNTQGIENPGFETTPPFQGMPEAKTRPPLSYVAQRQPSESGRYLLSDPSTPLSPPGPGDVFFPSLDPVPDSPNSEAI
How it was run: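 Competition of compound with a biotinylated peptide (final 2 nM, 30 min at RT) for binding to mVISTA on 293T cells, run under no-wash or wash (1 h compound preincubation then removal) formats. Readout by Alexa 647–streptavidin imaging on a high-content platform; four-parameter logistic fit gave IC50.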

IC50 [nM]	SMILES
22.2	CCCCCCN1CC(=O)N[C@@H](Cc2ccc(O)cc2)C(=O)N[C@@H](CCCC)C(=O)N[C@@H](CC(=O)O)C(=O)N[C@@H](CCCNC(=N)N)C(=O)N(C)[C@@H](CCCC)C(=O)N[C@@H](CCCCC)C(=O)N2CCC[C@H]2C(=O)N[C@@H](C(C)(C)C)C(=O)N[C@@H](CC(=O)O)C(=O)N[C@H](C(=O)N[C@@H](CC(=O)O)C(N)=O)CSCC(=O)N[C@@H](Cc2ccccc2)C(=O)N[C@@H](Cc2c[nH]c3ccccc23)C(=O)N[C@@H](CC(=O)O)C1=O [Example 1377] ({CH2CO}-FWD[NHexGly]Y[Nle]DR[NMeNle][Ahp(2)]P[Tle]DCD-NH2; thioether N-14)
41.3	CCCCCCN1CC(=O)N[C@@H](Cc2ccc(O)cc2)C(=O)N[C@@H](CCCC)C(=O)N[C@@H](CC(N)=O)C(=O)N[C@@H](CCCNC(=N)N)C(=O)N(C)[C@@H](CCCC)C(=O)N[C@@H](CCCCC)C(=O)N2CCC[C@H]2C(=O)N[C@@H](C(C)(C)C)C(=O)N[C@@H](CO)C(=O)N[C@H](C(=O)N[C@@H](CC(=O)O)C(N)=O)CSCC(=O)N[C@@H](Cc2ccccc2)C(=O)N[C@@H](Cc2c[nH]c3ccccc23)C(=O)N[C@@H](CC(=O)O)C1=O [Example 1378] ({CH2CO}-FWD[NHexGly]Y[Nle]NR[NMeNle][Ahp(2)]P[Tle]SCD-NH2; thioether N-14)
5.9	CCCCCCN1CC(=O)N[C@@H](Cc2ccc(O)cc2)C(=O)N[C@@H](CCCC)C(=O)N[C@@H](CC(N)=O)C(=O)N[C@@H](CCCNC(=N)N)C(=O)N(C)[C@@H](CCCC)C(=O)N[C@@H](CCCCC)C(=O)N2CCC[C@H]2C(=O)N[C@@H](C(C)C)C(=O)N[C@@H](CC(=O)O)C(=O)N[C@H](C(=O)NCC(=O)O)CSCC(=O)N[C@@H](Cc2ccccc2)C(=O)N[C@@H](Cc2c[nH]c3ccccc23)C(=O)N[C@@H](CC(=O)O)C1=O [Example 1379] ({CH2CO}-FWD[NHexGly]Y[Nle]NR[NMeNle][Ahp(2)]PVDCG-OH; thioether N-14)
12.1	CCCCCCN1CC(=O)N[C@@H](Cc2ccc(O)cc2)C(=O)N[C@@H](CCCC)C(=O)N[C@@H](CC(N)=O)C(=O)N[C@@H](CCCNC(=N)N)C(=O)N(C)[C@@H](CCCC)C(=O)N[C@@H](CCCCC)C(=O)N2CCC[C@H]2C(=O)N[C@@H](C(C)C)C(=O)N[C@@H](CCCNC(=N)N)C(=O)N[C@H](C(=O)NCC(=O)O)CSCC(=O)N[C@@H](Cc2ccccc2)C(=O)N[C@@H](Cc2c[nH]c3ccccc23)C(=O)N[C@@H](CC(=O)O)C1=O [Example 1380] ({CH2CO}-FWD[NHexGly]Y[Nle]NR[NMeNle][Ahp(2)]PVRCG-OH; thioether N-14)
20.3	CCCCCCN1CC(=O)N[C@@H](Cc2ccc(O)cc2)C(=O)N[C@@H](CCCC)C(=O)N[C@@H](CC(N)=O)C(=O)N[C@@H](CCCNC(=N)N)C(=O)N(C)[C@@H](CCCC)C(=O)N[C@@H](CCCCC)C(=O)N2CCC[C@H]2C(=O)N[C@@H](C(C)C)C(=O)N[C@@H](CC(N)=O)C(=O)N[C@H](C(=O)NCC(=O)O)CSCC(=O)N[C@@H](Cc2ccccc2)C(=O)N[C@@H](Cc2c[nH]c3ccccc23)C(=O)N[C@@H](CC(=O)O)C1=O [Example 1381] ({CH2CO}-FWD[NHexGly]Y[Nle]NR[NMeNle][Ahp(2)]PVNCG-OH; thioether N-14)
17.2	CCCCCCN1CC(=O)N[C@@H](Cc2ccc(O)cc2)C(=O)N[C@@H](CCCC)C(=O)N[C@@H](CC(N)=O)C(=O)N[C@@H](CCCNC(=N)N)C(=O)N(C)[C@@H](CCCC)C(=O)N[C@@H](CCCCC)C(=O)N2CCC[C@H]2C(=O)N[C@@H](C(C)C)C(=O)N[C@@H](CO)C(=O)N[C@H](C(=O)NCC(=O)O)CSCC(=O)N[C@@H](Cc2ccccc2)C(=O)N[C@@H](Cc2c[nH]c3ccccc23)C(=O)N[C@@H](CC(=O)O)C1=O [Example 1382] ({CH2CO}-FWD[NHexGly]Y[Nle]NR[NMeNle][Ahp(2)]PVSCG-OH; thioether N-14)
16.9	CCCCCCN1CC(=O)N[C@@H](Cc2ccc(O)cc2)C(=O)N[C@@H](CCCC)C(=O)N[C@@H](CC(N)=O)C(=O)N[C@@H](CCCNC(=N)N)C(=O)N(C)[C@@H](CCCC)C(=O)N[C@@H](CCCCC)C(=O)N2CCC[C@H]2C(=O)N[C@@H](C(C)C)C(=O)N[C@@H](C(C)C)C(=O)N[C@H](C(=O)NCC(=O)O)CSCC(=O)N[C@@H](Cc2ccccc2)C(=O)N[C@@H](Cc2c[nH]c3ccccc23)C(=O)N[C@@H](CC(=O)O)C1=O [Example 1383] ({CH2CO}-FWD[NHexGly]Y[Nle]NR[NMeNle][Ahp(2)]PVVCG-OH; thioether N-14)
10.9	CCCCCCN1CC(=O)N[C@@H](Cc2ccc(O)cc2)C(=O)N[C@@H](CCCCC)C(=O)N[C@@H](CC(N)=O)C(=O)N[C@@H](CCCNC(=N)N)C(=O)N(C)[C@@H](CCCC)C(=O)N[C@@H](CCCCC)C(=O)N2CCC[C@H]2C(=O)N[C@@H](C(C)C)C(=O)N[C@@H](CO)C(=O)N[C@H](C(=O)NCC(=O)O)CSCC(=O)N[C@@H](Cc2ccccc2)C(=O)N[C@@H](Cc2c[nH]c3ccccc23)C(=O)N[C@@H](CC(=O)O)C1=O [Example 1384] ({CH2CO}-FWD[NHexGly]Y[Ahp(2)]NR[NMeNle][Ahp(2)]PVSCG-OH; thioether N-14)
10.5	CCCCCCN1CC(=O)N[C@@H](Cc2ccc(O)cc2)C(=O)N[C@@H](CCCCC)C(=O)N[C@@H](CC(N)=O)C(=O)N[C@@H](CCCNC(=N)N)C(=O)N(C)[C@@H](CCCC)C(=O)N[C@@H](CCCCC)C(=O)N2CCC[C@H]2C(=O)N[C@@H](C(C)C)C(=O)N[C@@H](C(C)C)C(=O)N[C@H](C(=O)NCC(=O)O)CSCC(=O)N[C@@H](Cc2ccccc2)C(=O)N[C@@H](Cc2c[nH]c3ccccc23)C(=O)N[C@@H](CC(=O)O)C1=O [Example 1385] ({CH2CO}-FWD[NHexGly]Y[Ahp(2)]NR[NMeNle][Ahp(2)]PVVCG-OH; thioether N-14)
8.8	CCCCCCN1CC(=O)N[C@@H](Cc2ccc(O)cc2)C(=O)N[C@@H](CCCCC)C(=O)N[C@@H](CC(N)=O)C(=O)N[C@@H](CCCNC(=N)N)C(=O)N(C)[C@@H](CCCC)C(=O)N[C@@H](CCCCC)C(=O)N2CCC[C@H]2C(=O)N[C@@H](C(C)C)C(=O)N[C@@H](CC(=O)O)C(=O)N[C@H](C(=O)NCC(=O)O)CSCC(=O)N[C@@H](Cc2ccccc2)C(=O)N[C@@H](Cc2c[nH]c3ccccc23)C(=O)N[C@@H](CC(=O)O)C1=O [Example 1386] ({CH2CO}-FWD[NHexGly]Y[Ahp(2)]NR[NMeNle][Ahp(2)]PVDCG-OH; thioether N-14)
5.3	CCCCCCN1CC(=O)N[C@@H](Cc2ccc(O)cc2)C(=O)N[C@@H](CCCC)C(=O)N[C@@H](CC(N)=O)C(=O)N[C@@H](CCCNC(N)=O)C(=O)N(C)[C@@H](CCCC)C(=O)N[C@@H](CCCCC)C(=O)N2CCC[C@H]2C(=O)N[C@@H](C(C)C)C(=O)N[C@@H](CC(=O)O)C(=O)N[C@H](C(=O)NCC(=O)O)CSCC(=O)N[C@@H](Cc2ccccc2)C(=O)N[C@@H](Cc2c[nH]c3ccccc23)C(=O)N[C@@H](CC(=O)O)C1=O [Example 1387] ({CH2CO}-FWD[NHexGly]Y[Nle]N[Cit][NMeNle][Ahp(2)]PVDCG-OH; thioether N-14)
16.4	CCCCCCN1CC(=O)N[C@@H](Cc2ccc(O)cc2)C(=O)N[C@@H](CCCC)C(=O)N[C@@H](CC(N)=O)C(=O)N[C@@H](CCCNC(N)=O)C(=O)N(C)[C@@H](CCCC)C(=O)N[C@@H](CCCCC)C(=O)N2CCC[C@H]2C(=O)N[C@@H](C(C)CC)C(=O)N[C@@H](CO)C(=O)N[C@H](C(=O)NCC(N)=O)CSCC(=O)N[C@@H](Cc2ccccc2)C(=O)N[C@@H](Cc2c[nH]c3ccccc23)C(=O)N[C@@H](CC(=O)O)C1=O (stereo partly drawn) [Example 1388] ({CH2CO}-FWD[NHexGly]Y[Nle]N[Cit][NMeNle][Ahp(2)]P[Ile(3ξ)]SCG-NH2; thioether N-14)
